Activity calls are given as the source filed them. No rule for the calls is given here.
System: human cells, XBP1 mRNA qRT-PCR
Assay: compound effect on XBP1 transcript levels – cell-based, quantitative RT-PCR, medium throughput (AID 652064)

Q: How did the IC50 turn out when `CC(C)(C)c1ccc(C(=O)Nc2ccc(CC(=O)O)cc2)o1` was run?
A: The IC50 was > 20 µM (inactive).

Q: For `Cc1nn(C(C)(C)C)c(C)c1/C=N/OC(=O)Nc1ccc(Cl)cc1`, which IC50 is on record?
A: The IC50 was 20.1 µM (inactive).

Q: `CCN=C1NN=C(c2cc(C)n(Cc3ccco3)c2C)CS1` was tested. Which IC50 did it give?
A: Its IC50 is 10.2 µM (inactive).

Q: How did the IC50 turn out when `Cc1cc(C2=NNC(=NC3CC3)SC2)c(C)n1-c1ccccc1F` was run?
A: The IC50 was 6.31 µM (inactive).

Q: Which IC50 does the source give for `Cc1cc(C(=O)COC(=O)c2ccccc2O)c(C)n1Cc1cccs1` here?
A: The IC50 was 8.67 µM (inactive).

Q: How did the IC50 turn out when `CCOc1ccc(-c2nc(CSCC(=O)NCc3ccco3)c(C)o2)cc1` was run?
A: Its IC50 is 7.45 µM (inactive).

Q: `CC(C)(C)c1ccc(-c2noc(CCC(N)=O)n2)cc1` was tested. Which IC50 did it give?
A: The IC50 was > 20 µM (inactive).

Q: With `Cc1ccc(NC(=O)O/N=C/c2c(C)nn(C(C)(C)C)c2C)cc1Cl` as the compound, how does the IC50 read?
A: The IC50 was 10.1 µM (inactive).

Q: Which IC50 does the source give for `Cc1ccc(NC(=O)c2cc3ccccc3oc2=O)cc1S(=O)(=O)N(C)C` here?
A: The IC50 was > 20 µM (inactive).

Q: `Cc1cc(C2=NNC(=NC3CC3)SC2)c(C)n1-c1ccccc1` was tested. Which IC50 did it give?
A: Its IC50 is 4.78 µM (inactive).

Q: `C=CCn1c(C)cc(C2=NN=C(NCC)SC2)c1C` was tested. Which IC50 did it give?
A: The IC50 was 6.85 µM (inactive).

Reference: PubChem BioAssay AID652064 (Molecular Libraries Program, Specialized Chemistry Center, …, 2013)
